Laboratory results taken from patent US20220251610A1, “Prehydrolysate Fermentability in Biomass Pretreatment” (University of Cincinnati, priority 2021, published 2022).

Key:
[1] = Xylan 1.67 g/L; cited from earlier work
Saccharomyces cerevisiae = experiment: Yeast fermentation of prehydrolysates from dilute acid pretreatment of aspen with nucleophilic additives; type: cell-based; settings: for time at which glucose was completely consumed: 4% (w/w of dry biomass) additive in dilute acid pretreatment, glucose about 20 g/L; for final ethanol concentration / glucose consumption rate / volumetric ethanol productivity: 4% additive in pretreatment; for final ethanol concentration: 48 h fermentation; for glucose consumption rate / volumetric ethanol productivity: first 6 h of fermentation
Method: This analysis was carried out according to the NREL protocol. All pretreatment experiments were carried out in a Parr batch pressure vessel (model of 4520 of 2.0 L of capacity) (Parr Instrument Co., Moline, Ill.). […] All the pretreatment processes were conducted at 170° C. in 60 min. After pretreatment, the stirred reactor was quenched in a bucket with cold water. The slurry after pretreatment was separated into solid fraction and liquid fraction by vacuum filtration. The liquid fraction (prehydrolysates) was stored at 4° C. and used for subsequent analyses and fermentation. The pretreated substrates were washed with 560 mL warm water at least three times and collected by vacuum filtration. Fleischmann's pure dry yeast, Saccharomyces cerevisiae was stored at 4° C. and used for the ethanol fermentation. […] The concentration of yeast suspensions was determined by UV-spectrophotometer at 600 nm. […] Batch fermentation was taking place in a 250 mL flask with 50 mL prehydrolysates without any extra nutrients. […] Moreover, excessive CaCO3 was added to adjust the pH of prehydrolysates to 6. Then, the solution was filtered to remove CaCO3 and other impurities through the membrane filter (0.22 μm). All fermentation experiments were incubated at 30° C. and 150 rpm for 48 h in an incubator shaker (E24, New Brunswick Scientific). […] Fermentation was conducted in duplicate. The volumetric ethanol productivity (QEtOH) was calculated based on the produced ethanol in the first 6 h of fermentation as described previously. […] The sugar concentrations were detected by an Agilent 1260 HPLC system equipped with a Bio-Rad HPX-87P column (300×7.8 mm) connected to a refractive index detector (RID-10A). […] The column temperature and detector temperature were kept at 80, and 45° C., respectively. […] To examine whether adding nucleophilic additives in pretreatment can enhance prehydrolysate fermentability, cysteine, histidine, soy protein isolate (SPI) and bovine serum albumin (BSA) were added in the dilute acid pretreatment of aspen.

In the case of Xylan, the “reduction of the initial hydrolysis rate of Avicel” value [1] is given as 34.5%.

With N[C@@H](CS)C(=O)O [cysteine] the “time at which glucose was completely consumed” value (Saccharomyces cerevisiae) was 24 h, the final ethanol concentration (Saccharomyces cerevisiae) was 8.87 g/L and the glucose consumption rate (Saccharomyces cerevisiae) was 1.35 g/L/h. It also gave a volumetric ethanol productivity (Saccharomyces cerevisiae) of 0.51 g/L/h.

For N[C@@H](Cc1c[nH]cn1)C(=O)O [histidine], the “time at which glucose was completely consumed” value (Saccharomyces cerevisiae) was 6 h, the final ethanol concentration (Saccharomyces cerevisiae) was 8.69 g/L and the glucose consumption rate (Saccharomyces cerevisiae) was 3.22 g/L/h. The volumetric ethanol productivity (Saccharomyces cerevisiae) was 1.44 g/L/h.
